Values quoted from earlier work in US9745365B2, “Anti-influenza B virus hemagglutinin antibodies and methods of use” (priority 2014, dated 2017).

Target: influenza B neuraminidase (Influenza B virus, UniProt P03474)
Conditions: higher

Chain of influenza B neuraminidase (P03474 whole entry): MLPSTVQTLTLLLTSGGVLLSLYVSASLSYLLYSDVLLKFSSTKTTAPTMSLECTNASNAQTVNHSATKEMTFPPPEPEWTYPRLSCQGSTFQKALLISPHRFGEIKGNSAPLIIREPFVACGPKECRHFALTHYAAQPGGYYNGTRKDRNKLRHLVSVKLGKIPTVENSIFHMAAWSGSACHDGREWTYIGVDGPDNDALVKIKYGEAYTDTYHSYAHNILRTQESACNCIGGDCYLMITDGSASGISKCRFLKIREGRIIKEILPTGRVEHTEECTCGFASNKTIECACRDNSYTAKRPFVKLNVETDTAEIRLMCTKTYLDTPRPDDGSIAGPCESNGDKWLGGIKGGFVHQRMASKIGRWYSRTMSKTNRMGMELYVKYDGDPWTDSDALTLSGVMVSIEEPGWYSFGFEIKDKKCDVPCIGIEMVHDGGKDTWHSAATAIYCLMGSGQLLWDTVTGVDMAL

Structure (SMILES): CCOC(=O)C1=C[C@@H](OC(CC)CC)[C@H](NC(C)=O)[C@@H](N)C1 [oseltamivir phosphate]
- IC50 for influenza B neuraminidase compared to that for influenza A neuraminidase: 10 fold
